Measured values: patent US20240024412A1, “PHARMACEUTICAL COMPOSITION FOR TREATING CDI COMPRISING CLAY MINERAL COMPLEX, AND METHOD FOR PRODUCING SAME” (priority 2020, published 2024)

Tested on: C. difficile
Assay: mouse acute CDI model using dextran sulfate sodium (DSS), survival rate after oral administration
Assay type: in vivo
Details: for Mouse survival rate (%) according to type of administered drug: 10 mg/kg of vancomycin alone
Protocol: FIG. 3 is a diagram sequentially illustrating a series of experiments of being treated with dextran sodium sulfate (DSS), being infected with C. difficile, being administered with a bentonite-vancomycin complex, and observing survival rates, in order to produce a mouse acute CDI model. […]
In order to set the mixing ratio of the bentonite-antibiotics complex, vancomycin was orally administered at concentrations of 2, 20, and 200 mg/kg in a mouse acute CDI model using DSS, and the results were shown in Table 2 below and FIG. 5.
In order to confirm a synergistic effect on CDI treatment through the bentonite-antibiotics complex, according to the daily intake, the bentonite was administered at a dose concentration of 50 mg/kg and the vancomycin was administered at a dose concentration of 5 mg/kg, and the survival rates of mice were confirmed as compared to cases of administering 10 mg/kg of vancomycin alone, 50 mg/kg of bentonite alone, and saline alone as control groups thereto.

CN[C@H](CC(C)C)C(=O)N[C@H]1C(=O)N[C@@H](CC(N)=O)C(=O)N[C@H]2C(=O)N[C@H]3C(=O)N[C@H](C(=O)N[C@H](C(=O)O)c4cc(O)cc(O)c4-c4cc3ccc4O)[C@H](O)c3ccc(c(Cl)c3)Oc3cc2cc(c3O[C@@H]2O[C@H](CO)[C@@H](O)[C@H](O)[C@H]2O[C@H]2C[C@](C)(N)[C@H](O)[C@H](C)O2)Oc2ccc(cc2Cl)[C@H]1O [Vancomycin, vancomycin]
Mouse survival rate (%) according to type of administered drug (D+14): 1/6 (17%)
Mouse survival rate (%) according to type of administered drug (D-0): 6/6 (100%)
Mouse survival rate (%) according to vancomycin dose (vancomycin 2 mg/kg orally, D+14): (20%)
Mouse survival rate (%) according to vancomycin dose (vancomycin 2 mg/kg orally, D+14, listed as vancomycin): 20%
Mouse survival rate (%) according to vancomycin dose (vancomycin 2 mg/kg orally, D-0): (100%)
Mouse survival rate (%) according to vancomycin dose (vancomycin 20 mg/kg orally, D+14): 5/5 (100%)
Mouse survival rate (%) according to vancomycin dose (vancomycin 20 mg/kg orally, D+14, listed as vancomycin): 100%
Mouse survival rate (%) according to vancomycin dose (vancomycin 20 mg/kg orally, D-0): 5/5 (100%)
Mouse survival rate (%) according to vancomycin dose (vancomycin 200 mg/kg orally, D+14): 5/5 (100%)
Mouse survival rate (%) according to vancomycin dose (vancomycin 200 mg/kg orally, D+14, listed as vancomycin): 100%
Mouse survival rate (%) according to vancomycin dose (vancomycin 200 mg/kg orally, D-0): 5/5 (100%)
